The values below come from patent US11180486B2, “Indolylkojyl methane analogues, process of preparation thereof and use as inhibitor of cancer cells invasion and metastasis” (Council of Scientific & Industrial Research, priority 2017, dated 2021).

The test system of one data set is MCF7 cells. Kind of data set: Cell viability (MTT) assay. The class given is cell-based. To be noted: Homo sapiens, MCF7, 48 h, 44 h + 4 h, mean ± SD of three experiments, read-out: IC50 values MCF7. The procedure: (§1) Cell Culture and Reagents. The cell lines used in this study were procured from American Type Culture Collection (ATCC), Manassas, USA. MCF7, T47D and fR2 cells were cultured in RPMI-1640 medium, whereas the MDA-MB-231 cells were grown in Leibovitz's (L-15) medium supplemented with 10% fetal bovine serum (Gibco) and 1% penicillin/streptomycin (Sigma) in a humidified CO2 incubator (New Brunswick Galaxy 170 R) with 5% CO2. Reagents such as phenylmethylsulfonyl fluoride (PMSF), dithiothreitol (DTT), DMSO, crystal violet, and Bradford's reagent were purchased from Sigma-Aldrich. Protease inhibitor cocktail was procured from Roche. The antibodies for human GRP78, Par-4, MMP-2, MMP-9, NF-kB, E-cadherin and TIMP-1 were procured from Santa-Cruz Biotechnology. The β-actin antibody and the secondary antibodies such as anti-rabbit IgG and anti-mouse IgG were procured from Sigma-Aldrich.
(§2) Cell Viability Assay. The cell viability was determined by standard MTT assay method. Briefly, MDA-MB-231, MCF7, T47D and fR2 cells were seeded in 96 well tissue culture plates (Nunc) at a density of 3×10^3 cells per well and treated with varying concentrations of the test compounds in triplicates. DMSO was taken as a vehicle and the final concentration of the DMSO was maintained at 0.2% in the culture medium. Doxorubicin was employed as a positive control. After 44 h of incubation, MTT dye solution was added into the medium and cells were incubated for another 4 h at 37° C. in 5% CO2. The amount of coloured formazan derivatives formed was measured by taking optical density (OD) using a microplate reader (TECAN, Infinite M200 Pro) at 570 nm and the percentage cell viability was calculated. The IC50 values were calculated using GraphPad Prism software (Version 5.0). Table 2. Cytotoxicity (IC50) of all synthesized compounds of invention against panel of human breast cancer cell lines (MDA-MB-231, MCF7, T47D) and normal breast epithelial (fR2) cells.

In a further data set the test system is MDA-MB-231 cells. Nature of the data set: Cell viability (MTT) assay. The class given is cell-based. The settings on record: Homo sapiens, MDA-MB-231, 48 h, 44 h + 4 h, mean ± SD of three experiments, read-out: IC50 values MDA-MB-231. The procedure: as §1, §2
The next data set concerns T47D cells. Nature of the data set: Cell viability (MTT) assay. In kind it is cell-based. To be noted: Homo sapiens, 48 h, 44 h + 4 h, mean ± SD of three experiments. The procedure:
as §1, §2

Data set [1] deals with mouse mammary carcinoma (4T1) cells. The class given is in vivo. To be noted: 100 mg/kg b.w. i.p., alternate days for two weeks. The procedure: In Vivo Anti-Tumor and Anti-Metastatic Efficacy Studies. To evaluate the antitumor and antimetastatic effect of 5 in vivo, healthy female Balb/c mice (b.w. 18-23 g) were taken. The experimental protocols were approved by the Institutional Animal Ethics Committee, CPCSEA, of Indian Institute of Integrative Medicine, Jammu. The animals were maintained at 22° C. with a 12 h light-dark cycle and free access to feed and water inside the institutional animal house. Proper care was taken to maintain them in a healthy condition and to avoid any risk of possible pathogenic contaminations. For subcutaneous implantation, the mice were randomized into two groups of 5 mice per group and 1.5 million mouse mammary carcinoma (4T1) cells in serum free RPMI media were injected subcutaneously into the mammary fat pad of each mouse. Either 1 week after the tumor cell implantation or when the tumor volume reached ˜150 mm^3, mice were injected intraperitoneally with either normal saline (NS) or parent compound 1 (100 mg/kg, b.w.) or 5 (30 mg/kg, b.w.) in each alternate days for two weeks. Tumor size was recorded on each alternate days post-cell injection and body weights were recorded once per week. Mice were sacrificed on the 15th day of treatment initiation and tumors were incised for its measurement. Metastatic lung nodules were counted using a dissecting microscope. Lungs were then minced into fine pieces, suspended in medium containing collagenase and kept in 37° C. incubator with vigorous shaking for 2 h. The suspension was then filtered with the help of 70 μm cell strainer (BD, USA) to get the single cell suspension. Then, the suspension was serially diluted for 3-4 times in selection medium containing 6-thioguanine, for the selection of 4T1 cells. Each dilution containing the lung cell suspension was then plated into individual petridishes and incubated at 37° C. and 5% CO2 for the growing of 4T1 cell colonies. After 15 days of incubation, cells were washed with PBS, fixed with methanol and stained with 0.2% crystal violet solution for 1 h. Images of the 4T1 colonies were observed, counted and photographed under an inverted microscope at 20× magnification.

Broadly, the IC50 is the concentration at which inhibition is half-maximal. As for `O=c1cc(CO)occ1O` [Compound 1, 5-Hydroxy-2-(hydroxymethyl)-4H-pyran-4-one, reference compound], the IC50 with MCF7 cells was 94.5 ± 2.68 µM; with MDA-MB-231 cells it was 87.2 ± 1.52 µM; in the data set on T47D cells, greater than 100 µM. The “decrease in metastatic lung nodules” value in data set [1] worked out at 16.7%. Moreover, the “inhibition in tumor growth” value in data set [1] (vs normal saline) is 23%.

By melting point is commonly meant the temperature, or range, at which the solid turns liquid. The compound `CCCC(c1oc(CO)cc(=O)c1O)c1c[nH]c2ccccc12` (stereo not shown) [Compound 2, 2-(1-(1H-indol-3-yl)butyl)-3-hydroxy-6-(hydroxymethyl)-4H-pyran-4-one] yielded a melting point of 130 to 140 °C. For the same compound, the half-maximal inhibitory concentration (IC50) in the data set on MCF7 cells came out at 45.2 ± 0.348 µM. Besides, the IC50 with MDA-MB-231 cells is 43.25 ± 0.416 µM. In addition, the IC50 with T47D cells is 43 ± 0.144 µM.

In turn, `CCCCCC(c1oc(CO)cc(=O)c1O)c1c[nH]c2ccccc12` (stereo not shown) [Compound 3, 2-{1-(1H-indol-3-yl)hexyll}-3-hydroxy-6-(hydroxymethyl)-4H-pyran-4-one] yielded a melting point of 120 to 130 °C. For the same compound, the IC50 in the data set on MCF7 cells was greater than 100 µM. Further, the IC50 in the data set with MDA-MB-231 cells is 40.6 ± 0.621 µM. Further, the IC50 in the data set with T47D cells is 43.5 ± 0.203 µM.

With `CCCCCCC(c1oc(CO)cc(=O)c1O)c1c[nH]c2ccccc12` (stereo not shown) [Compound 4, 2-(1-(1H-indol-3-yl)heptyl)-3-hydroxy-6-(hydroxymethyl)-4H-pyran-4-one], the melting point lay in the range of 115 to 125 °C. The IC50 in the data set with MCF7 cells was found to be 3.93 ± 0.288 µM. Moreover, the IC50 in the data set with MDA-MB-231 cells stood at 3.84 ± 0.055 µM. The IC50 with T47D cells stood at 4.3 ± 0.443 µM.

The compound `CCCCCCCCCC(c1oc(CO)cc(=O)c1O)c1c[nH]c2ccccc12` (stereo not shown) [Compound 6] returned a melting point of 110 to 120 °C. The IC50 in the data set on MCF7 cells is greater than 100 µM. Further, the IC50 in the data set with MDA-MB-231 cells was 40.6 ± 0.621 µM. For the same compound, in the data set on T47D cells, the IC50 was greater than 100 µM.

Compound `CCCCCCCCCCC(c1oc(CO)cc(=O)c1O)c1c[nH]c2ccccc12` (stereo not shown) [Compound 7, 2-{1-(1H-indol-3-yl)undecyl}-3-hydroxy-6-(hydroxymethyl)-4H-pyran-4-one] displayed a melting point of 110 to 120 °C. In addition, in the data set on MCF7 cells, the concentration for half-maximal inhibition (IC50) was greater than 100 µM. For the same compound, in the data set on MDA-MB-231 cells, the concentration for half-maximal inhibition (IC50) is 49.5 ± 0.448 µM. The IC50 in the data set with T47D cells is greater than 100 µM.

Take `CCCCCCCCCCCC(c1oc(CO)cc(=O)c1O)c1c[nH]c2ccccc12` (stereo not shown) [Compound 8, 2-{1-(1H-indol-3-yl)dodecyl}-3-hydroxy-6-(hydroxymethyl)-4H-pyran-4-one]: the melting point lay in the range of 105 to 115 °C. The IC50 with MCF7 cells is greater than 100 µM. For the same compound, the IC50 in the data set on MDA-MB-231 cells came to 45.2 ± 0.535 µM. Further, the half-inhibitory concentration (IC50) in the data set with T47D cells was greater than 100 µM.

Compound `CCCCCCCCCCCCCCCC(c1oc(CO)cc(=O)c1O)c1c[nH]c2ccccc12` (stereo not shown) [Compound 9, 2-{1-(1H-indol-3-yl)hexadecyl}-3-hydroxy-6-(hydroxymethyl)-4H-pyran-4-one] yielded a melting point of 95 to 105 °C. Besides, in the data set on MCF7 cells, the concentration for half-maximal inhibition (IC50) is greater than 100 µM. In the data set with MDA-MB-231 cells, the concentration for half-maximal inhibition (IC50) is 45.7 ± 0.195 µM. The 50% inhibitory concentration (IC50) in the data set with T47D cells is greater than 100 µM.

As to `CCCCCCCCCCCCCCCCCC(c1oc(CO)cc(=O)c1O)c1c[nH]c2ccccc12` (stereo not shown) [Compound 10, 2-{1-(1H-indol-3-yl)octadecyl}-3-hydroxy-6-(hydroxymethyl)-4H-pyran-4-one], the melting point fell in the range of 90 to 100 °C. In addition, the IC50 with MCF7 cells is greater than 100 µM. For the same compound, the IC50 in the data set with MDA-MB-231 cells stood at 48.5 ± 0.341 µM. Further, the IC50 with T47D cells is greater than 100 µM.

Regarding `COc1cccc2c1C(=O)c1c(O)c3c(c(O)c1C2=O)C[C@@](O)(C(=O)CO)C[C@@H]3O[C@H]1C[C@H](N)[C@H](O)[C@H](C)O1` [DOXO, doxorubicin, reference compound], the IC50 with MCF7 cells was determined as 0.085 ± 0.125 µM; in the data set on MDA-MB-231 cells, 0.22 ± 0.185 µM; in the data set with T47D cells, 0.081 ± 0.211 µM.
